Experiments:
[1] = system: misfolded SOD1 in UMNs of hSOD1^G93A‐UeGFP mice; test: Quantification of misfolded SOD1 (B8H10) in UMNs; type: in vivo; conditions: for misfolded SOD1 level in UMNs (average integrated density): hSOD1^G93A‐UeGFP mice
Experimental: (§1) hSOD1^G93A‐UeGFP, prpTDP‐43^A315T‐UeGFP and WT‐UeGFP mice were weighed and the required NU‐9 dose per weight was calculated (20 or 100 mg/kg), which was administered once daily by oral gavage, starting at postnatal day (P)60 and continuing until P120. Animals from the untreated group received the vehicle (NMP and olive oil) only. For oral administration purposes, 20 ga × 38 mm plastic feeding tubes were used (Instech Laboratories, Inc). The gavage tip was inserted into the mouth directly over the tongue and into the pharynx. While observing the swallowing reflex, the tip was safely and smoothly slid into the esophagus. Once the administration was completed, the gavage tip was pulled straight out.
The antibodies used are as follows: anti‐GFP (1:1000, Invitrogen; or 1:1000, Abcam) and anti‐misfolded SOD1 (B8H10, 1:250, Médimabs). Briefly, sections were treated with blocking solution (PBS, 0.05% BSA, 2% FBS, 1% Triton X‐100, and 0.1% saponin) for 30 min at room temperature and incubated with primary antibody diluted in blocking solution overnight at 4°C. Appropriate secondary fluorescent antibodies (1:500, AlexaFluor‐conjugated, Invitrogen) were added to the blocking solution at room temperature for 2 h in the dark.
50‐µm thick sections of primary motor cortex were captured using the 20× objective on an inverted epifluorescent Eclipse TE2000‐E microscope using the same settings and exposure time for all of the samples. eGFP positive (eGFP^+) UMNs in focal plane with sharp boundaries and a visible nucleus were traced using ImageJ (NIH). ROI were transferred to the misfolded SOD1 channel, and the integrated density was measured to determine the levels of misfolded SOD1 in GFP^+ UMNs only. Fifty to 90 UMNs were analyzed per mouse, and the average integrated density was reported per experimental group. For visualization purposes of misfolded SOD1 fluorescence intensity, nd2 files were opened in ImageJ and spectrum look‐up table (LUT) was applied to the appropriate channel.

[2] = system: WT‐UeGFP mice; test: Rotarod test, WT‐UeGFP mice; type: in vivo; parameters: Rotarod, Mean Diff. (vehicle minus NU-9) / Rotarod, mean difference G vehicle vs. G NU-9 (20) / Rotarod, mean difference G vehicle vs. G NU-9 (100): unit not given here; conditions: for Rotarod, group mean (Mean 1 / Mean 2 of 2way ANOVA multiple comparisons): WT-UeGFP (G); for Rotarod, group mean (Mean 1 / Mean 2) / Rotarod, Mean Diff. (vehicle minus NU-9): WT-UeGFP mice; for Rotarod, Average / Rotarod, mean difference G vehicle vs. G NU-9 (20) / Rotarod, mean difference G vehicle vs. G NU-9 (100): WT-UeGFP; for Rotarod, mean difference G vehicle vs. G NU-9 (20): vehicle minus NU-9 20 mg/kg/day; for Rotarod, mean difference G vehicle vs. G NU-9 (100): vehicle minus NU-9 100 mg/kg/day
Experimental: as §1
Behavior data were collected from hSOD1^G93A‐UeGFP and WT‐UeGFP mice (starting at P60 and every 7 days until P116) and from prpTDP‐43^A315T‐UeGFP mice (at P60, P90, and P120) with the following number of mice for each group: WT‐UeGFP vehicle (n = 10), hSOD1^G93A‐UeGFP vehicle (n = 6), WT‐UeGFP 20 mg/kg/day NU‐9 (n = 5), hSOD1^G93A‐UeGFP 20 mg/kg/day NU‐9 (n = 7), WT‐UeGFP 100 mg/kg/day NU‐9 (n = 11), hSOD1^G93A‐UeGFP 100 mg/kg/day NU‐9 (n = 9), prpTDP‐43^A315T‐UeGFP untreated (n ≥ 3), and prpTDP‐43^A315T‐UeGFP 100 mg/kg/day NU‐9 (n = 4) (Table S3).
Mice were placed on a rotating rod that accelerates linearly from 4 to 40 rpm (Rotarod, Ugo Basile), and the average time spent on the rotating rod for three consecutive trials was calculated for each mouse. Mice were allowed to run for a maximum of 5 min with a 5 min rest period between each run, and the latency to fall was recorded for three consecutive trials. The average of the three trials was taken as the data point for each mouse at the age tested, and the performance of different groups are reported as the mean ± SEM.

[3] = parameters: method as in PMID 22189273, PMID 22837812; conditions: cited from earlier work

In the case of `C[C@H](Oc1cc(C(F)(F)F)cc(C(F)(F)F)c1)C1CC(=O)CC(=O)C1` [NU‐9], the “Fig. 3E group mean (integrated density of misfolded SOD1 fluorescence in UMNs)” value ([1]; hSOD1G93A-UeGFP (NU-9 20 mg/kg/day)) is reported as 132928, the “Fig. 3E group mean (integrated density of misfolded SOD1 fluorescence in UMNs)” value ([1]; hSOD1G93A-UeGFP (NU-9 100 mg/kg/day)) is reported as 120052 and the “misfolded SOD1 level in UMNs (average integrated density)” value ([1]; 20 mg/kg/day oral gavage P60–P120) is reported as 1.33 × 10^5 ± 0.11 × 10^5 au. The “misfolded SOD1 level in UMNs (average integrated density)” value ([1]; 100 mg/kg/day oral gavage P60–P120) was 1.2 × 10^5 ± 0.07 × 10^5 au, the “Rotarod, group mean (Mean 1 / Mean 2 of 2way ANOVA multiple comparisons)” value ([2]; NU-9 20 mg/kg/day, P102) was 295.1 and the “Rotarod, group mean (Mean 1 / Mean 2 of 2way ANOVA multiple comparisons)” value ([2]; NU-9 20 mg/kg/day, P109) was 291. The “Rotarod, group mean (Mean 1 / Mean 2 of 2way ANOVA multiple comparisons)” value ([2]; NU-9 20 mg/kg/day, P116) was 298.9, the “Rotarod, group mean (Mean 1 / Mean 2 of 2way ANOVA multiple comparisons)” value ([2]; NU-9 100 mg/kg/day, P102) was 251.4 and the “Rotarod, group mean (Mean 1 / Mean 2 of 2way ANOVA multiple comparisons)” value ([2]; NU-9 100 mg/kg/day, P109) was 241.3. The “Rotarod, group mean (Mean 1 / Mean 2 of 2way ANOVA multiple comparisons)” value ([2]; NU-9 100 mg/kg/day, P116) was 221.3, the “Rotarod, group mean (Mean 1 / Mean 2)” value ([2]; NU-9 20 mg/kg/day, P60) was 260.7 and the “Rotarod, group mean (Mean 1 / Mean 2)” value ([2]; NU-9 20 mg/kg/day, P67) was 279.2. For the same molecule, the “Rotarod, group mean (Mean 1 / Mean 2)” value ([2]; NU-9 20 mg/kg/day, P74) was 295.3, the “Rotarod, group mean (Mean 1 / Mean 2)” value ([2]; NU-9 20 mg/kg/day, P81) was 286.1 and the “Rotarod, group mean (Mean 1 / Mean 2)” value ([2]; NU-9 20 mg/kg/day, P88) was 285.5. The “Rotarod, group mean (Mean 1 / Mean 2)” value ([2]; NU-9 20 mg/kg/day, P95) was 279.3, the “Rotarod, group mean (Mean 1 / Mean 2)” value ([2]; NU-9 100 mg/kg/day, P60) was 250.1 and the “Rotarod, group mean (Mean 1 / Mean 2)” value ([2]; NU-9 100 mg/kg/day, P67) was 261.4. The “Rotarod, group mean (Mean 1 / Mean 2)” value ([2]; NU-9 100 mg/kg/day, P74) was 261.2, the “Rotarod, group mean (Mean 1 / Mean 2)” value ([2]; NU-9 100 mg/kg/day, P81) was 258.5 and the “Rotarod, group mean (Mean 1 / Mean 2)” value ([2]; NU-9 100 mg/kg/day, P88) was 256.5. The “Rotarod, group mean (Mean 1 / Mean 2)” value ([2]; NU-9 100 mg/kg/day, P95) was 262.2, the “Rotarod, Mean Diff. (vehicle minus NU-9)” value ([2]; vehicle vs. NU-9 20 mg/kg/day, P60) was 10.27 and the “Rotarod, Mean Diff. (vehicle minus NU-9)” value ([2]; vehicle vs. NU-9 20 mg/kg/day, P67) was -0.9667. For the same molecule, the “Rotarod, Mean Diff. (vehicle minus NU-9)” value ([2]; vehicle vs. NU-9 20 mg/kg/day, P74) was -13.73, the “Rotarod, Mean Diff. (vehicle minus NU-9)” value ([2]; vehicle vs. NU-9 20 mg/kg/day, P81) was -2.267 and the “Rotarod, Mean Diff. (vehicle minus NU-9)” value ([2]; vehicle vs. NU-9 20 mg/kg/day, P88) was -1.533. The “Rotarod, Mean Diff. (vehicle minus NU-9)” value ([2]; vehicle vs. NU-9 20 mg/kg/day, P95) was 5.033, the “Rotarod, Mean Diff. (vehicle minus NU-9)” value ([2]; vehicle vs. NU-9 20 mg/kg/day, P102) was -24.77 and the “Rotarod, Mean Diff. (vehicle minus NU-9)” value ([2]; vehicle vs. NU-9 20 mg/kg/day, P109) was -17.03. The “Rotarod, Mean Diff. (vehicle minus NU-9)” value ([2]; vehicle vs. NU-9 20 mg/kg/day, P116) was -40.09, the “Rotarod, Mean Diff. (vehicle minus NU-9)” value ([2]; vehicle vs. NU-9 100 mg/kg/day, P60) was 20.91 and the “Rotarod, Mean Diff. (vehicle minus NU-9)” value ([2]; vehicle vs. NU-9 100 mg/kg/day, P67) was 16.81. For the same molecule, the “Rotarod, Mean Diff. (vehicle minus NU-9)” value ([2]; vehicle vs. NU-9 100 mg/kg/day, P74) was 20.39, the “Rotarod, Mean Diff. (vehicle minus NU-9)” value ([2]; vehicle vs. NU-9 100 mg/kg/day, P81) was 25.41 and the “Rotarod, Mean Diff. (vehicle minus NU-9)” value ([2]; vehicle vs. NU-9 100 mg/kg/day, P88) was 27.48. The “Rotarod, Mean Diff. (vehicle minus NU-9)” value ([2]; vehicle vs. NU-9 100 mg/kg/day, P95) was 22.09, the “Rotarod, Mean Diff. (vehicle minus NU-9)” value ([2]; vehicle vs. NU-9 100 mg/kg/day, P102) was 18.94 and the “Rotarod, Mean Diff. (vehicle minus NU-9)” value ([2]; vehicle vs. NU-9 100 mg/kg/day, P109) was 32.69. For the same molecule, the “Rotarod, Mean Diff. (vehicle minus NU-9)” value ([2]; vehicle vs. NU-9 100 mg/kg/day, P116) was 37.47, the “Rotarod, Average” value ([2]; NU-9 20 mg/kg/day po, P60) was 260.733 s and the “Rotarod, Average” value ([2]; NU-9 20 mg/kg/day po, P67) was 279.2 s. For the same molecule, the “Rotarod, Average” value ([2]; NU-9 20 mg/kg/day po, P74) was 295.333 s, the “Rotarod, Average” value ([2]; NU-9 20 mg/kg/day po, P81) was 286.133 s and the “Rotarod, Average” value ([2]; NU-9 20 mg/kg/day po, P88) was 285.467 s. For the same molecule, the “Rotarod, Average” value ([2]; NU-9 20 mg/kg/day po, P95) was 279.267 s, the “Rotarod, Average” value ([2]; NU-9 20 mg/kg/day po, P102) was 295.133 s and the “Rotarod, Average” value ([2]; NU-9 20 mg/kg/day po, P109) was 291 s. For the same molecule, the “Rotarod, Average” value ([2]; NU-9 20 mg/kg/day po, P116) was 298.867 s, the “Rotarod, Average” value ([2]; NU-9 100 mg/kg/day po, P60) was 250.091 s and the “Rotarod, Average” value ([2]; NU-9 100 mg/kg/day po, P67) was 261.424 s. The “Rotarod, Average” value ([2]; NU-9 100 mg/kg/day po, P74) was 261.212 s, the “Rotarod, Average” value ([2]; NU-9 100 mg/kg/day po, P81) was 258.455 s and the “Rotarod, Average” value ([2]; NU-9 100 mg/kg/day po, P88) was 256.455 s. The “Rotarod, Average” value ([2]; NU-9 100 mg/kg/day po, P95) was 262.212 s, the “Rotarod, Average” value ([2]; NU-9 100 mg/kg/day po, P102) was 251.424 s and the “Rotarod, Average” value ([2]; NU-9 100 mg/kg/day po, P109) was 241.273 s. For the same molecule, the “Rotarod, Average” value ([2]; NU-9 100 mg/kg/day po, P116) was 221.303 s, the “Rotarod, mean difference G vehicle vs. G NU-9 (20)” value ([2]; P102) was -24.77 and the “Rotarod, mean difference G vehicle vs. G NU-9 (20)” value ([2]; P109) was -17.03. For the same molecule, the “Rotarod, mean difference G vehicle vs. G NU-9 (20)” value ([2]; P116) was -40.09, the “Rotarod, mean difference G vehicle vs. G NU-9 (100)” value ([2]; P102) was 18.94 and the “Rotarod, mean difference G vehicle vs. G NU-9 (100)” value ([2]; P109) was 32.69. For the same molecule, the “Rotarod, mean difference G vehicle vs. G NU-9 (100)” value ([2]; P116) was 37.47, the “PAMPA‐BBB P e” value [3] was 8.11 × 10^–6 cm/s and the “PAMPA‐BBB classification” value [3] was “CNS+”.

From article PMC7898037, “Improving mitochondria and ER stability helps eliminate upper motor neuron degeneration that occurs due to mSOD1 toxicity and TDP‐43 pathology” (Clinical and Translational Medicine, 2021)
